The source of these data is patent publication US10150760B2, “Compounds for use in preparing heterocyclic triazole agonists of the APJ receptor” (AMGEN INC., priority 2016, dated 2018).

Chain of human APJ receptor (P35414 whole entry): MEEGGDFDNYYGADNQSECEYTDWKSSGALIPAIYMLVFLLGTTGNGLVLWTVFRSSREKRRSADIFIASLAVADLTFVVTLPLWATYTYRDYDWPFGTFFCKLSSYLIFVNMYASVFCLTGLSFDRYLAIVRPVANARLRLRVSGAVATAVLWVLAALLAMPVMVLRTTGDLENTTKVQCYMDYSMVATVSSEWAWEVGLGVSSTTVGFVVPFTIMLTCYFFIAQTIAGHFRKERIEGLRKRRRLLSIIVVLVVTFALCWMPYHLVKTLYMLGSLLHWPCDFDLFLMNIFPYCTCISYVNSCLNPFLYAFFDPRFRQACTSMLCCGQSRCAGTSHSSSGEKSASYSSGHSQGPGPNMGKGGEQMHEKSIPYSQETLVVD

This assay has as its target human APJ receptor (Homo sapiens (Human), UniProt P35414). Briefly: [35S]GTPγS binding assay on membranes from CHO cells stably expressing human APJ receptor. The assay is classed as biochemical. The settings on record: read-out: Activity hAPJ SPA EC50 IP. Here is the method: The human APJ receptor was cloned by polymerase chain reaction and the gene encoding the receptor was subcloned in pFLAG-CMV™-3 expression vector (Sigma, Saint Louis, Mo. USA) in-house at Amgen. A GTPγS binding assay was performed on membranes prepared from CHO cells stably expressing human APJ receptor. The optimum experimental conditions for the concentrations of GDP, MgCl2, and NaCl in the assay buffer were initially determined. The assay was performed in assay buffer [20 mM HEPES, pH 7.5, 5 mM MgCl2, and 0.1% (w/v) BSA with 200 mM NaCl, 3 μM GDP] and membranes expressing human APJ receptor/well along with WGA PS beads. The reaction was initiated by addition of 0.2 nM [^35S]GTPγS (Perkin Elmer Life and Analytical Sciences, Waltham USA) in the absence or presence of various ligands and incubated at RT for 90 min. Nonspecific binding was determined in the presence of 100 μM GTPγS and was always less than 0.2% of total binding. All the results presented are means of several independent experiments and analyzed by non-linear regression methods using commercially available program Prism (GraphPad, San Diego, Calif.) to obtain EC50 detailed in Table 38.
Background: Binding of GTPγS marks nucleotide exchange on a G protein.
With `COc1cccc(OC)c1-n1c(NS(=O)(=O)[C@@H](C)[C@H](OC)c2ncc(Cl)cn2)nnc1[C@H]1CCCO1` (single isomer, unassigned) [Example 52.0, (1R,2S)-1-(5-chloropyrimidin-2-yl)-N-(4-(2,6-dimethoxyphenyl)-5-((R)-tetrahydrofuran-2-yl)-4H-1,2,4-triazol-3-yl)-1-methoxypropane-2-sulfonamide or (1R,2S)-1-(5-chloropyrimidin-2-yl)-N-(4-(2,6-dimethoxyphenyl)-5-((S)-tetrahydrofuran-2-yl)-4H-1,2,4-triazol-3-yl)-1-methoxypropane-2-sulfonamide], the EC50 turned out to be 20 nM.

Consider `COc1cccc(OC)c1-n1c(NS(=O)(=O)[C@@H](C)[C@H](C)c2ncc(C)cn2)nnc1[C@H]1CCOC1` (single isomer, unassigned) [Example 54.0, (2S,3R)-N-(4-(2,6-dimethoxyphenyl)-5-((R)-tetrahydrofuran-3-yl)-4H-1,2,4-triazol-3-yl)-3-(5-methylpyrimidin-2-yl)butane-2-sulfonamide or (2S,3R)-N-(4-(2,6-dimethoxyphenyl)-5-((S)-tetrahydrofuran-3-yl)-4H-1,2,4-triazol-3-yl)-3-(5-methylpyrimidin-2-yl)butane-2-sulfonamide], for which the concentration for a half-maximal effect (EC50) was determined as 37 nM.

As to `COc1cccc(OC)c1-n1c(NS(=O)(=O)[C@@H](C)[C@H](C)c2ncc(C)cn2)nnc1[C@H]1CCOC1` (single isomer, unassigned) [Example 55.0, (2S,3R)-N-(4-(2,6-dimethoxyphenyl)-5-((R)-tetrahydrofuran-3-yl)-4H-1,2,4-triazol-3-yl)-3-(5-methylpyrimidin-2-yl)butane-2-sulfonamide or (2S,3R)-N-(4-(2,6-dimethoxyphenyl)-5-((S)-tetrahydrofuran-3-yl)-4H-1,2,4-triazol-3-yl)-3-(5-methylpyrimidin-2-yl)butane-2-sulfonamide], the EC50 came to 66 nM.

As for `COc1cccc(OC)c1-n1c(NS(=O)(=O)[C@@H](C)[C@H](C)c2ncc(C)cn2)nnc1[C@H]1CCCOC1` (single isomer, unassigned) [Example 58.0, (2S,3R)-N-(4-(2,6-dimethoxyphenyl)-5-((R)-tetrahydro-2H-pyran-3-yl)-4H-1,2,4-triazol-3-yl)-3-(5-methylpyrimidin-2-yl)butane-2-sulfonamide or (2S,3R)-N-(4-(2,6-dimethoxyphenyl)-5-((S)-tetrahydro-2H-pyran-3-yl)-4H-1,2,4-triazol-3-yl)-3-(5-methylpyrimidin-2-yl)butane-2-sulfonamide], the EC50 came out at 120 nM.

In the case of `COc1cccc(OC)c1-n1c(NS(=O)(=O)[C@@H](C)[C@H](C)c2ncc(C)cn2)nnc1[C@H]1CCCOC1` (single isomer, unassigned) [Example 59.0, (2S,3R)-N-(4-(2,6-dimethoxyphenyl)-5-((R)-tetrahydro-2H-pyran-3-yl)-4H-1,2,4-triazol-3-yl)-3-(5-methylpyrimidin-2-yl)butane-2-sulfonamide or (2S,3R)-N-(4-(2,6-dimethoxyphenyl)-5-((S)-tetrahydro-2H-pyran-3-yl)-4H-1,2,4-triazol-3-yl)-3-(5-methylpyrimidin-2-yl)butane-2-sulfonamide], the EC50 was 16 nM.

Turning to `COc1cccc(OC)c1-n1c(NS(=O)(=O)[C@@H](C)[C@H](C)c2ncc(Cl)cn2)nnc1[C@H]1CCCOC1` (single isomer, unassigned) [Example 62.0, (2S,3R)-3-(5-chloropyrimidin-2-yl)-N-(4-(2,6-dimethoxyphenyl)-5-((R)-tetrahydro-2H-pyran-3-yl)-4H-1,2,4-triazol-3-yl)butane-2-sulfonamide or (2S,3R)-3-(5-chloropyrimidin-2-yl)-N-(4-(2,6-dimethoxyphenyl)-5-((S)-tetrahydro-2H-pyran-3-yl)-4H-1,2,4-triazol-3-yl)butane-2-sulfonamide], the EC50 came out at 26 nM.

Regarding `COc1cccc(OC)c1-n1c(NS(=O)(=O)[C@@H](C)[C@H](OC)c2ncc(Cl)cn2)nnc1[C@H]1CCCOC1` (single isomer, unassigned) [Example 64.0, (1R,2S)-1-(5-chloropyrimidin-2-yl)-N-(4-(2,6-dimethoxyphenyl)-5-((R)-tetrahydro-2H-pyran-3-yl)-4H-1,2,4-triazol-3-yl)-1-methoxypropane-2-sulfonamide or (1R,2S)-1-(5-chloropyrimidin-2-yl)-N-(4-(2,6-dimethoxyphenyl)-5-((S)-tetrahydro-2H-pyran-3-yl)-4H-1,2,4-triazol-3-yl)-1-methoxypropane-2-sulfonamide], the EC50 turned out to be 29 nM.

In the case of `COc1cccc(OC)c1-n1c(NS(=O)(=O)[C@@H](C)[C@@H](OC(C)C)c2cnc(C)cn2)nnc1[C@H]1CCCO1` (single isomer, unassigned) [Example 66.0], the EC50 was found to be 6.9 nM.

`COc1cccc(OC)c1-n1c(NS(=O)(=O)[C@@H](C)[C@@H](OC(C)C)c2cnc(C)cn2)nnc1[C@H]1CCCO1` (single isomer, unassigned) [Example 67.0]: the EC50 amounted to 180 nM.

As to `COc1cccc(OC)c1-n1c(NS(=O)(=O)[C@@H](C)[C@H](C)c2ncc(Cl)cn2)nnc1[C@H]1OCC[C@H]1C` (single isomer, unassigned) [Example 68.0, (2S,3R)-3-(5-chloropyrimidin-2-yl)-N-(4-(2,6-dimethoxyphenyl)-5-((2S,3R)-3-methyltetrahydrofuran-2-yl)-4H-1,2,4-triazol-3-yl)butane-2-sulfonamide or (2S,3R)-3-(5-chloropyrimidin-2-yl)-N-(4-(2,6-dimethoxyphenyl)-5-((2R,3S)-3-methyltetrahydrofuran-2-yl)-4H-1,2,4-triazol-3-yl)butane-2-sulfonamide], the EC50 was determined as 14 nM.

Take `COc1ncnc(OC)c1-n1c(NS(=O)(=O)[C@@H](C)[C@H](C)c2ncc(C)cn2)nnc1[C@H]1CCCO1` (single isomer, unassigned) [Example 69.0, (2S,3R)-N-(4-(4,6-dimethoxypyrimidin-5-yl)-5-((S)-tetrahydrofuran-2-yl)-4H-1,2,4-triazol-3-yl)-3-(5-methylpyrimidin-2-yl)butane-2-sulfonamide or (2S,3R)-N-(4-(4,6-dimethoxypyrimidin-5-yl)-5-((R)-tetrahydrofuran-2-yl)-4H-1,2,4-triazol-3-yl)-3-(5-methylpyrimidin-2-yl)butane-2-sulfonamide]: the EC50 is 82 nM.

As to `COc1ncnc(OC)c1-n1c(NS(=O)(=O)[C@@H](C)[C@H](C)c2ncc(C)cn2)nnc1[C@H]1CCCO1` (single isomer, unassigned) [Example 70.0, (2S,3R)-N-(4-(4,6-dimethoxypyrimidin-5-yl)-5-((S)-tetrahydrofuran-2-yl)-4H-1,2,4-triazol-3-yl)-3-(5-methylpyrimidin-2-yl)butane-2-sulfonamide or (2S,3R)-N-(4-(4,6-dimethoxypyrimidin-5-yl)-5-((R)-tetrahydrofuran-2-yl)-4H-1,2,4-triazol-3-yl)-3-(5-methylpyrimidin-2-yl)butane-2-sulfonamide], the EC50 came to 15 nM.

As usually defined, the EC50 is the concentration giving half of the maximal effect.
